Results on three compounds are retold here after patent US7683051B2, “Crystalline polymorph of bazedoxifene acetate” (Wyeth, priority 2004, dated 2010).

One data set is described as follows: physchem. As to conditions: EtOH/EtOAc/Tol, organic solvent or mixture, Solubility-Org (EtOH/EtOAc/Tol).
The conditions of data set [1]: acetic acid.
The conditions of data set [2]: acetic acid. This is another data set of the same source.
Data set [3] relates to MCF-7 cell line (human breast cancer cell line). As to conditions: MCF-7 human breast cancer cell line; cited from earlier work.
Data set [4] relates to ovariectomized rat model of osteopenia. To be noted: cited from earlier work.
Another data set deals with uterine response. To be noted: preclinical models of uterine stimulation; cited from earlier work.

Each structure is given as a SMILES string. ≈ marks a conversion by molar mass, not a printed value.

A word on the solubility: it is the concentration that dissolves in the medium under given conditions. `Cc1c(-c2ccc(O)cc2)n(Cc2ccc(OCCN3CCCCCC3)cc2)c2ccc(O)cc12` [Form A, 1-[4-(2-azepan-1-yl-ethoxy)-benzyl]-2-(4-hydroxy-phenyl)-3-methyl-1H-indol-5-ol acetic acid]: in the data set “physchem”, the solubility is 24.5 mg/mL (≈ 52.1 mM). The compound also returned a Solubility-Water in data set [1] of 0.49 mg/mL (≈ 1.04 mM).

On to `Cc1c(-c2ccc(O)cc2)n(Cc2ccc(OCCN3CCCCCC3)cc2)c2ccc(O)cc12` [Form B, 1-[4-(2-azepan-1-yl-ethoxy)-benzyl]-2-(4-hydroxy-phenyl)-3-methyl-1H-indol-5-ol acetic acid], for which the “Solubility-Org (EtOH/EtOAc/Tol)” value in data set [2] turned out to be 12.4 mg/mL (≈ 26.3 mM). This compound yielded a Solubility-Water in data set [1] of 0.23 mg/mL (≈ 0.489 mM).

For the compound `Cc1c(-c2ccc(O)cc2)n(Cc2ccc(OCCN3CCCCCC3)cc2)c2ccc(O)cc12` [bazedoxifene acetate, 1-[4-(2-azepan-1-yl-ethoxy)-benzyl]-2-(4-hydroxy-phenyl)-3-methyl-1H-indol-5-ol acetic acid], in data set [3], the “estrogen agonist/antagonist behaviour in MCF-7 cells” value is “behaves as an estrogen antagonist”. Besides, in data set [4], the “effect on bone loss” value is given as “estrogen agonist-like effect in preventing bone loss” and the effect on cholesterol entry is “reducing cholesterol”. Moreover, in the data set with uterine response, the “stimulation of uterine response” value is “little or no stimulation of uterine response”.
